Source: patent US9068017B2, “Compositions and methods for inhibiting terminal transferase activity” (IBIS BIOSCIENCES, INC., priority 2010, dated 2015)

Tested on: polymerase having terminal transferase activity
Protocol: PCR products with and without boric acid added to PCR components and reagents prior to thermal cycling steps were compared. Stock boric acid was dissolved in 50% primer dilution buffer and added to PCR reactions for a final concentration of 100 mM boric acid and 200 mM boric acid.

3′ non-template addition of amplicons resulting from polymerase dependent terminal transferase activity (addition of boric acid to amplification reactions, summary statement, no concentration given): reduced 3′ non-template addition
SMILES: OB(O)O [boric acid]
non-template addition on forward and reverse strands of PCR products (boric acid added before thermal cycling, final concentration 100 mM and 200 mM, mass spectrometry (FIG. 1), non-template addition identified in absence of boric acid): undetectable non-template addition on both the forward and reverse strands
